# Key:
# [1] = test system: CA1/CA2 hippocampal neurones; assay: Gerbil carotid occlusion ischaemia, test compound administered prior to induction of ischaemia; format: in vivo; conditions: gerbils; for % Damage to CA1/CA2 Hippocampal Neurones: assessed after 4 days
# From the text: (§1) The detailed mechanisms that underlie ischaemia-induced degeneration of hippocampal neurones have yet to be clarified, but the above mentioned gerbil test system has been widely used as a predictive model of neuroprotective activity (see, for example, B.J. Alps, C. Calder, W.K. Hass and A.D. Wilson, Brit. J. Pharmacol., 1988, 93, 877-883; R. Gill, A.C. Foster and G.N. Woodruff, J. Neuroscience, 1987, 7, 3343-3349).
# (§2) Ischaemia was induced in gerbils by occlusion of the carotid arteries following the accepted general procedure as described in, for example, EP 230 370 and R. Gill, A.C. Foster and G.N. Woodruff, J. Neuroscience, 1987, 7, 3343-3349.
# (§3) Ischaemia was induced in gerbils by 10 minute occlusion of both carotid arteries. Restoration of blood flow after occlusion was checked visually and the animals were allowed to survive for 4 days. The extent of neuronal degeneration in the hippocampus was then assessed. The test compounds were administered (i.p.) as a single dose 30 minutes prior to occlusion.
# [2] = test system: CA1/CA2 hippocampal neurones; assay: Gerbil carotid occlusion ischaemia, test compound administered following induction of ischaemia; format: in vivo; conditions: gerbils; for % Damage to CA1/CA2 Hippocampal Neurones: assessed after 4 days
# From the text: as §1, §2, §3
# The general procedure described in (a) above was followed except that the test compound was administered (i.p.) as a single dose at the stated time following the end of the occlusion. No administration was made prior to the occlusion.
structure (smiles),measurement,setting,value
"Cc1ncsc1CCCl [chlormethiazole, 5-(2-chloroethyl)-4-methylthiazole]",damage to the CA1/CA2 hippocampal neurones (result in words),"[1]; i.p. single dose 30 minutes prior to occlusion, summary of Table 1",effective in reducing the damage to the CA1/CA2 hippocampal neurones
same,damage to the CA1/CA2 hippocampal neurones (result in words),"[2]; i.p. single dose after the ischaemic insult, summary of Table 2",effective in reducing the damage to the CA1/CA2 hippocampal neurones
CC(C(O)c1ccc(O)cc1)N1CCC(Cc2ccccc2)CC1 (centres unmarked) [Ifenprodil],% Damage to CA1/CA2 Hippocampal Neurones,[1]; 4mg/kg i.p. single dose 30 minutes prior to 10 minute occlusion of both carotid arteries,62 ± 8.0%
C[C@]12N[C@H](Cc3ccccc31)c1ccccc12 [MK 801],% Damage to CA1/CA2 Hippocampal Neurones,[1]; 3mg/kg i.p. single dose 30 minutes prior to 10 minute occlusion of both carotid arteries,< 5%
Cc1ncsc1CCCl [Chlormethiazole ethanedisulphonate],% Damage to CA1/CA2 Hippocampal Neurones,[1]; 50mg/kg i.p. single dose 30 minutes prior to 10 minute occlusion of both carotid arteries,37.6 ± 13.4%
same,% Damage to CA1/CA2 Hippocampal Neurones,[1]; 100mg/kg i.p. single dose 30 minutes prior to 10 minute occlusion of both carotid arteries,< 5%
same,% Damage to CA1/CA2 Hippocampal Neurones,[2]; 50mg/kg i.p. single dose 30 minutes after the end of 10 minute occlusion,69.4 ± 6.9%
same,% Damage to CA1/CA2 Hippocampal Neurones,[2]; 100mg/kg i.p. single dose 30 minutes after the end of 10 minute occlusion,12.8 ± 10.4%
same,% Damage to CA1/CA2 Hippocampal Neurones,[2]; 100mg/kg i.p. single dose 1 hour after the end of 10 minute occlusion,14.3 ± 8.7%
same,% Damage to CA1/CA2 Hippocampal Neurones,[2]; 100mg/kg i.p. single dose 2 hours after the end of 10 minute occlusion,7.25 ± 4.8%
same,% Damage to CA1/CA2 Hippocampal Neurones,[2]; 100mg/kg i.p. single dose 6 hours after the end of 10 minute occlusion,45.6 ± 14%

# Reference: patent EP0458892B1, “USE OF CHLORMETHIAZOLE IN THE MANUFACTURE OF A MEDICAMENT FOR THE PREVENTION AND/OR TREATMENT OF NEURODEGENERATION” (priority 1989, dated 1990)
